These results are taken from EP4732840A1, “AGENT FOR SUPPRESSING PROLIFERATION OF BACTERIA, AND COSMETIC, QUASI-DRUG, AND PHARMACEUTICAL COMPOSITION CONTAINING SAID AGENT, AND METHOD FOR SUPPRESSING PROLIFERATION OF BACTERIA” (Toyo Sugar Refining Co., Ltd., priority 2023, dated 2024).

In one data set the test system is Escherichia coli. Particulars: viable count after 24 hours or 48 hours exposure; Patent Literature 2; cited from earlier work.
In data set [1] the test system is Staphylococcus epidermidis. Particulars: viable count after 24 hours or 48 hours exposure; Patent Literature 2; cited from earlier work.
Data set [2] has as its system Corynebacterium minutissimum. Particulars: viable count after 24 hours or 48 hours exposure; Patent Literature 2; cited from earlier work.
Data set [3] relates to Staphylococcus aureus. Particulars: viable count after 24 hours or 48 hours exposure; Patent Literature 2; cited from earlier work.
In a further data set the test system is Pseudomonas aeruginosa. Particulars: viable count after 24 hours or 48 hours exposure; Patent Literature 2; cited from earlier work.
The conditions of data set [4]: reported in Patent Literature 2; cited from earlier work.
The subject of another data set is Pseudomonas cepacia. Particulars: viable count after 24 hours or 48 hours exposure; Patent Literature 2; cited from earlier work.
In data set [5] the test system is Staphylococcus aureus. The data set is described as follows: Proliferation test with paper disc on agar plate (growth inhibition zone). It counts as cell-based, Staphylococcus aureus (NBRC 13276). Particulars: test substance (COSARTE-2G or glycerin) diluted to 40% by mass, 50 µL on paper disc; BHI agar, 48 hours. As to the method: (§1) As glyceryl glucoside, COSARTE-2G (manufactured by Toyo Sugar Refining Co., Ltd.) was diluted with ion-exchanged water such that COSARTE-2G was 40% by mass. Further, as a positive control, BD (Sensi-Disc Tetracycline 30, Antimicrobial Susceptibility Test Kit, manufactured by Nippon Becton Dickinson Company, Ltd.) was used. As a control, glycerin (manufactured by Nacalai Tesque Inc.) was diluted with ion-exchanged water to be 40% by mass.
Staphylococcus aureus (NBRC 13276) was used as a representative strain of Staphylococcus aureus. A Staphylococcus aureus strain was added to BHI liquid medium and pre-cultured at 37°C.
(§2) GAM agar plates and BHI agar plates were prepared. Pre-cultured Propionibacterium acnes, Streptococcus mutans, and Staphylococcus aureus strains in the logarithmic growth phase were suspended in liquid medium to a concentration of 1 × 10^7 cells/mL, and 50 µL of this suspension was taken and spread onto each agar plate medium using a glass spreader.
(§3) Each test substance was sterilized by filtration using a membrane filter, and then 50 µL was impregnated into a sterilized paper disc. […]
(§4) The effect of inhibiting the proliferation of bacteria was determined by the presence or absence and size of the growth inhibition zone around the paper disc.

The test system of a further data set is Streptococcus mutans. Described as above. The format is cell-based, Streptococcus mutans (JCM 5705). Particulars: test substance (COSARTE-2G or glycerin) diluted to 40% by mass, 50 µL on paper disc; BHI agar, 48 hours. Here is the method: as §1
Streptococcus mutans (JCM 5705) was used as a representative strain of Streptococcus mutans. A Streptococcus mutans strain was added to BHI liquid medium and pre-cultured at 35°C.
as §2
Each test substance was sterilized by filtration using a membrane filter, and then 50 µL was impregnated into a sterilized paper disc. A paper disk was aseptically placed on an agar plate medium, and cultured for 48 hours under conditions suitable for each bacterial strain.
as §4

The subject of a further data set is Propionibacterium acnes. The description is as above. It counts as cell-based, Propionibacterium acnes (JCM 6425). The note with it: test substance (COSARTE-2G or glycerin) diluted to 40% by mass, 50 µL on paper disc; GAM agar, anaerobic, 48 hours. Here is the method:
as §1
Propionibacterium acnes (JCM 6425) was used as a representative strain of Propionibacterium acnes. A Propionibacterium acnes strain was added to GAM liquid medium and pre-cultured at 35°C under anaerobic conditions using an AnaeroPack.
as §2, §3, §4

Data set [6] is described as follows: Primary skin irritation test. The format is in vivo. Particulars: rabbit.
The next data set can be described thus: Human patch test. The format is in vivo.
A further data set can be described thus: Eye irritation test. The format is in vivo. Particulars: rabbit.
A further data set can be described thus: Photosensitization test. The note with it: in vivo.
A further data set has as its system Gardnerella vaginalis. Description: Bacterial proliferation test (turbidity, absorbance at 600 nm). It counts as cell-based, Gardnerella vaginalis (ATCC 14018). The note with it: C-mo 2G at final concentrations of 0.5%, 1.0%, 2.0% in medium; 3 culture days, 37°C, 5%CO2; n = 3; effect concentration dependent. The source says: (§5) C-mo2G (manufactured by Toyo Sugar Refining Co., Ltd.) was used as glyceryl glucoside. Furthermore, as a positive control, penicillin-streptomycin (manufactured by FUJIFILM Wako Pure Chemical Corporation, No. 168-23191) was used. Sterile water was used as a control.
(§6) Bacteria and media shown in Table 1 were used, and cultured under the conditions in Table 1.
(§7) As a GAM semi-fluid high layer medium, NO.05424 manufactured by NISSUI PHARMACEUTICAL CO., LTD. was used.
(§8) The number of culture days was set to such a number of days that bacterial proliferation could be visually confirmed in the control.
(§9) Each bacterium in which a frozen stock (15% (vol/vol) glycerin was added to the medium) was inoculated into 9 mL of the medium, and culture was started. After culturing until reaching the logarithmic growth phase, the medium was well stirred to make the turbidity uniform, and then the absorbance at 600 nm was measured. The medium was diluted with a medium such that the absorbance (600 nm) was 0.1, and this was used as a bacterial diluent.
(§10) C-mo 2G was added to the medium at final concentrations of 0.5%, 1.0%, and 2.0%. […]
(§11) 200 µL of the bacterial diluent was added to 9 mL of the medium containing the test substance, and culture was started. After culturing, the medium was well stirred to make the turbidity uniform, and then the absorbance (turbidity) at 600 nm was measured. […]

In the next data set the test system is Lactobacillus iners. Described as above. Particulars: C-mo 2G at final concentrations of 0.5%, 1.0%, 2.0% in medium; 3 culture days, 37°C, 5%CO2; n = 3. The format is cell-based, Lactobacillus iners (ATCC 55195).
Description: as §5, §6, §7, §8, §9, §10, §11

Data set [7] can be described thus: Skin sensitization test (intracutaneous Maximization method). The format is in vivo. Particulars: guinea pig intracutaneous Maximization method.
Another data set has as its system Atopobium vaginae. Description: Bacterial proliferation test (turbidity, absorbance at 600 nm). It counts as cell-based, Atopobium vaginae (ATCC BAA-55). The note with it: C-mo 2G at final concentrations of 0.5%, 1.0%, 2.0% in medium; 2 culture days, 37°C, anaerobic; n = 3; effect concentration dependent.
Description: as §5, §6, §7, §8
An experiment was performed using Atopobium vaginae as a representative bacterium of the genus Atopobium.
Each bacterium in which a frozen stock (15% (vol/vol) glycerin was added to the medium) was inoculated into 9 mL of the medium, and culture was started. After culturing until reaching the logarithmic growth phase, the medium was well stirred to make the turbidity uniform, and then the absorbance at 600 nm was measured. The medium was diluted with a medium such that the absorbance (600 nm) was 0.1, and this was used as a bacterial diluent. […]
as §11

Data set [8] in a line: Mutagenicity test (in vitro).
A further data set in a line: Water solubility. It counts as physicochemical.
Data set [9] is described as follows: Repeated skin irritation test. The note with it: in vivo.
A short description of a further data set: Phototoxicity test. The note with it: guinea pig. It counts as in vivo.
In the next data set the test system is Lactobacillus crispatus. The data set is described as follows: Bacterial proliferation test (turbidity, absorbance at 600 nm). It counts as cell-based, Lactobacillus crispatus (ATCC 33820). Particulars: C-mo 2G at final concentrations of 0.5%, 1.0%, 2.0% in medium; 1 culture day, 37°C, 5%CO2; n = 3.
Description: as §5, §6, §7, §8, §9, §10, §11

On to α-D-glucopyranosylglycerol, for which, in the data set with Escherichia coli, the “antimicrobial activity against Escherichia coli” value was “antimicrobial activity”. Further, the “antimicrobial activity against Staphylococcus epidermidis” value in data set [1] is “antimicrobial activity”. Moreover, the “antimicrobial activity against Corynebacterium minutissimum” value in [2] is recorded as “antimicrobial activity”. In the data set on Staphylococcus aureus [3], the “antimicrobial activity against Staphylococcus aureus” value was “antimicrobial activity”. For the same compound, the “antimicrobial activity against Pseudomonas aeruginosa” value in the data set on Pseudomonas aeruginosa was “antimicrobial activity”. In addition, in data set [4], the skin irritation entry was “no skin irritation”. Besides, the “antimicrobial activity against Pseudomonas cepacia” value in the data set with Pseudomonas cepacia is “antimicrobial activity”.
With `OCC(O)CO` [Glycerin, glycerin, reference compound], the “growth inhibition zone around the paper disc, Staphylococcus aureus” value in the data set with Staphylococcus aureus [5] is reported as “same result as glyceryl glucoside”. Besides, in the data set on Streptococcus mutans, the “growth inhibition zone around the paper disc, Streptococcus mutans” value is reported as “same result as glyceryl glucoside”. Further, the “growth inhibition zone around the paper disc, Propionibacterium acnes” value in the data set with Propionibacterium acnes is “same result as glyceryl glucoside”.
Turning to glyceryl glucoside, the “growth inhibition zone around the paper disc, Staphylococcus aureus” value in the data set with Staphylococcus aureus [5] is given as “no growth inhibition zone”. The “toxicity in primary skin irritation test” value in data set [6] is on record as “no toxicity”. For the same compound, the “toxicity in human patch test” value in the data set “Human patch test” was “no toxicity”. In “Eye irritation test”, the “toxicity in eye irritation test” value was “no toxicity”. Besides, the “toxicity in photosensitization test” value in “Photosensitization test” is recorded as “no toxicity”. In addition, in the data set with Streptococcus mutans, the “growth inhibition zone around the paper disc, Streptococcus mutans” value is “no growth inhibition zone”. Besides, the “proliferation of Gardnerella vaginalis (absorbance 600 nm) relative to control” value in the data set on Gardnerella vaginalis is “significantly inhibited”. Further, the “proliferation of Lactobacillus iners (number of bacteria, absorbance 600 nm) relative to control” value with Lactobacillus iners is “increased”. The “toxicity in skin sensitization test” value in [7] is given as “no toxicity”. Besides, the “proliferation of Atopobium vaginae (absorbance 600 nm) relative to control” value in the data set on Atopobium vaginae is on record as “significantly inhibited”. The “toxicity in mutagenicity test” value in data set [8] is listed as “no toxicity”. Besides, the water solubility result in “Water solubility” is listed as “good”. Moreover, the “toxicity in repeated skin irritation test” value in [9] is reported as “no toxicity”. In addition, the “growth inhibition zone around the paper disc, Propionibacterium acnes” value in the data set on Propionibacterium acnes is reported as “no growth inhibition zone”. In addition, the “toxicity in phototoxicity test” value in “Phototoxicity test” was “no toxicity”. Also, in the data set on Lactobacillus crispatus, the “proliferation of Lactobacillus crispatus (number of bacteria, absorbance 600 nm) relative to control” value was “little change in the number”.
